# Legend:
# Norovirus [1] = assay: Inhibition of recombinant norovirus VA387 binding to human HBGA A antigen by EIA; format: functional
# Norovirus [2] = assay: Inhibition of norovirus recombinant VA387 binding to human HBGA B antigen by EIA; format: functional
# Norovirus [3] = assay: Inhibition of recombinant norovirus MOH binding to human HBGA B antigen by EIA; format: functional
# [4] = Cytotoxicity against HeLa cells by MTS assay; format: cell-based; conditions: human
# Norovirus [5] = assay: Inhibition of recombinant norovirus Norwalk binding to human HBGA H antigen by EIA; format: functional
# Norovirus [6] = assay: Inhibition of recombinant norovirus VA387 binding to human HBGA H antigen by EIA; format: functional
# Norovirus [7] = assay: Inhibition of recombinant norovirus VA207 binding to human HBGA Le antigen by EIA; format: functional
# Norovirus [8] = assay: Inhibition of norovirus VA387 binding to HBGA A type antigen in human saliva at 2.2 uM by EIA; format: functional
# Norovirus [9] = assay: Inhibition of recombinant norovirus Norwalk binding to human HBGA A antigen by EIA; format: functional
# Norovirus [10] = assay: Inhibition of recombinant norovirus MOH binding to human HBGA A antigen by EIA; format: functional
# [11] = Solubility of the compound; format: physicochemical
# Norovirus [12] = assay: Inhibition of norovirus VA387 binding to HBGA A type antigen in human saliva at 9.6 uM by EIA; format: functional
# Norovirus [13] = assay: Inhibition of norovirus VA387 binding to HBGA A type antigen in human saliva at 12.8 uM by EIA; format: functional
# Norovirus [14] = assay: Inhibition of norovirus VA387 binding to HBGA A type antigen in human saliva at 13.7 uM by EIA; format: functional
# Norovirus [15] = assay: Inhibition of norovirus VA387 binding to HBGA A type antigen in human saliva at 11.8 uM by EIA; format: functional
# Norovirus [16] = assay: Inhibition of norovirus VA387 binding to HBGA A type antigen in human saliva at 13.6 uM by EIA; format: functional
# Norovirus [17] = assay: Inhibition of norovirus VA387 binding to HBGA A type antigen in human saliva at 4.8 uM by EIA; format: functional
# Norovirus [18] = assay: Inhibition of norovirus VA387 binding to HBGA A type antigen in human saliva at 11.7 uM by EIA; format: functional
# Norovirus [19] = assay: Inhibition of norovirus VA387 binding to HBGA A type antigen in human saliva at 8.1 uM by EIA; format: functional
# Norovirus [20] = assay: Inhibition of norovirus VA387 binding to HBGA A type antigen in human saliva at 10.9 uM by EIA; format: functional
# Norovirus [21] = assay: Inhibition of norovirus VA387 binding to HBGA A type antigen in human saliva at 9.3 uM by EIA; format: functional
# Norovirus [22] = assay: Inhibition of norovirus VA387 binding to HBGA A type antigen in human saliva at 9.1 uM by EIA; format: functional
Structure (SMILES),EC50 (Norovirus [1]) [µM],EC50 (Norovirus [2]) [µM],EC50 (Norovirus [3]) [µM],CC50 [4] [µM],EC50 (Norovirus [5]) [µM],EC50 (Norovirus [6]) [µM],EC50 (Norovirus [7]) [µM],EC50 (Norovirus [9]) [µM],EC50 (Norovirus [10]) [µM],solubility [11] [µM],other results
CCC[n+]1cc(-c2ccccc2)nc(N2CCOCC2)n1.[I-],2.2,5.8,> 100,158,18.9,6.8,> 100,15.6,> 100,400,inhibition at 2.2 µM (Norovirus [8]): 49.3%
Oc1ccc(/C=N/c2nccs2)c(O)c1,9.6,26,> 100,324,> 100,7.6,> 100,> 100,> 100,400,inhibition at 9.6 µM (Norovirus [12]): 45.3%
CCCCc1ccc(NC(=O)c2ccc(C)cc2)cc1,12.8,32.5,> 100,180,47.8,28.2,> 100,53,> 100,400,inhibition at 12.8 µM (Norovirus [13]): 54.3%
CCCOc1ccc(-c2cc(C(=O)N/N=C/c3ccc(OCC)cc3)[nH]n2)cc1,13.7,> 100,> 100,12.3,> 100,> 100,> 100,> 100,> 100,> 100,inhibition at 13.7 µM (Norovirus [14]): 51.1%
CC(C)OC(=O)CC(=O)CSc1nc(-c2ccc(F)cc2)cc(-c2cccs2)c1C#N,11.8,7.9,> 100,220,19.8,7.5,> 100,35,> 100,400,inhibition at 11.8 µM (Norovirus [15]): 50.9%
Cc1cc(O)c(Sc2c(O)cc(C)cc2C(C)(C)c2ccccc2)c(C(C)(C)c2ccccc2)c1,13.6,49.5,> 100,70.6,> 100,48.1,> 100,> 100,> 100,400,inhibition at 13.6 µM (Norovirus [16]): 48.9%
CCOC(=O)C1=C(C)OC(N)=C(C#N)C1c1ccc(OCc2ccc(C)cc2)c([N+](=O)[O-])c1 (stereo not drawn),4.8,18.6,13.3,78.6,24.5,11.9,> 100,22.9,16.5,400,inhibition at 4.8 µM (Norovirus [17]): 61.1%
Cc1ccc(NC(=O)CC(c2ccccc2)c2ccccc2)cc1C,11.7,> 100,> 100,40.3,> 100,47.5,> 100,> 100,> 100,> 100,inhibition at 11.7 µM (Norovirus [18]): 51.4%
C=C(SCCNC(=O)NCCCCCCNC(=O)NCCSc1ccccc1O)/C(C)=C\C,8.1,13.1,> 100,113,22.6,14.2,> 100,14.1,> 100,400,inhibition at 8.1 µM (Norovirus [19]): 59.3%
O=C(/C=C/c1ccc(-c2cc(Cl)cc(Cl)c2)o1)c1cccs1,10.9,> 100,> 100,157,> 100,> 100,> 100,> 100,> 100,400,inhibition at 10.9 µM (Norovirus [20]): 49%
O=CC(=O)c1ccc2c(c1)Cc1cc(C(=O)C=O)ccc1-2,9.3,44.6,> 100,52.7,> 100,41.1,> 100,> 100,> 100,400,inhibition at 9.3 µM (Norovirus [21]): 53.8%
O=C(C(=O)c1ccc(C(=O)c2ccc(C(=O)C(=O)c3ccc(Sc4ccccc4)cc3)cc2)cc1)c1ccc(Sc2ccccc2)cc1,12.8,35.3,> 100,263,> 100,26.1,> 100,> 100,> 100,400,inhibition at 12.8 µM (Norovirus [13]): 46.1%
CCCc1ccc(OCc2ccc(C(=O)N/N=C/c3ccc(Cl)cc3O)o2)cc1,9.1,13.5,> 100,46.7,36.3,7.2,> 100,18.2,> 100,400,inhibition at 9.1 µM (Norovirus [22]): 62.9%

# Reference: ChEMBL document CHEMBL1142143, “Library screen for inhibitors targeting norovirus binding to histo-blood group antigen receptors” (Antimicrob Agents Chemother, 2007)
